Results taken from patent US7208140B2, “Trimeric macrocyclic substituted benzene derivatives” (Schering Aktiengesellschaft, priority 2003, dated 2007).
Values joined by “and” are separate entries in the source; they are usually repeats but may differ in a detail not shown here. Equal values may be shown once.

Columns and labels:
Male Wistar rats = assay: CT studies (computer tomography) of rats after intravenous injection; format: in vivo, rat; conditions: i.v.
Method: By way of example, the suitability of the described compound class was examined in Example 1B with the aid of computer tomography (CT) of rats. For the CT studies, a Siemens Somatom CR was available. The 5-second image was prepared with a layer thickness of 2 mm and a tube voltage of 125 kV. Substance 1B was formulated as an aqueous solution at a concentration of 0.17 mol/l (corresponds to 145 mg (1+Gd)/ml.
Male Wistar rats (400 g of body weight) were scanned before (FIG. 1a) and after intravenous injection (FIG. 1) of 1B in a dose of 0.15 mmol/kg (corresponds to 127 mg of (I+Gd)/kg).
This early phase reflects the blood perfusion of the renal cortex.

Wistar rats = assay: MRT studies (angiography and organ visualization) of rats after intravenous injection; format: in vivo, rat; conditions: i.v.
Method: The same substance (IB) was examined with the aid of magnetic resonance tomography (MRT) as a contrast medium.
The MRT studies were performed on a 1.5 T device (Siemens Symphonie with 40 mT/m gradients). 400 g Wistar rats were examined with T1-weighted image sequences (angiography TR 2.54 ms, TE 1.12 ms und α=40° or organ visualization TR 54 ms, TE 4.8 ms and α=40°). The angiography (MRA, FIG. 3) was from 0–60 seconds p.i., and the organ visualization (FIGS. 4a and b) was prepared 15 minutes after the injection. Substance 1B was formulated as an aqueous solution at a concentration of 0.17 mol/l (corresponds to 0.5 mol of Gd/l) and was intravenously injected in a dose of 0.03 mmol of substance or 0.1 mmol of Gd/kg.

[1] = system: Epithelial cell line MDCK; assay: Neutral red test of cell viability in epithelial cells of the distal renal tubule; format: cell-based, canine; conditions: 50% reduction of cell viability after 24 hours
Method: To determine the IC-50, the neutral red test was used in epithelial cells of the distal renal tubule. In addition, this test is very helpful for predicting with high accuracy the LD-50 values of newly synthesized compounds.
Epithelial cell line MDCK of the renal distal renal tubule of a canine kidney (ECACC No. 85011435) was incubated from 10,000 cells/well in Alpha MEM Eagle (10% fetal bovine serum) at 37° C. and 5% CO2, 95% atmospheric humidity for 20 hours with various Examples 1B, 3F and 5F. Neutral red was used as an indicator for cell viability and for measuring lyosomal integrity and employed to determine those contrast medium concentrations in which a 50% reduction of cell viability (IC-50) occurred after 24 hours.
Four independent replicates were tested for each concentration of contrast medium. […] The latter is a reference compound in clinical practice and a contrast medium with proven excellent compatibility. The highest compatibility was found for Example 3F with 1170 μmol of I eq/ml.

[2] = Distribution coefficient in 1-butanol and tris-HCl buffer; format: physicochemical; conditions: for Distribution Coefficient of Butanol/Water: 1-butanol and tris-HCl buffer at pH 7.6
Method: The distribution coefficient of Example 3F was determined in comparison to Gadovist, iopromide and iotrolan in 1-butanol and tris-HCl buffer at pH 7.6.

Distribution Coefficient of Butanol/Water [2] | SMILES | IC50 [1] | also measured
 | CC(C(=O)NCC(=O)NCCNC(=O)c1c(I)c(C(=O)NCCNC(=O)CNC(=O)C(C)N2CCN(CC(=O)[O-])CCN(CC(=O)[O-])CCN(CC(=O)[O-])CC2)c(I)c(C(=O)NCCNC(=O)CNC(=O)C(C)N2CCN(CC(=O)[O-])CCN(CC(=O)[O-])CCN(CC(=O)[O-])CC2)c1I)N1CCN(CC(=O)[O-])CCN(CC(=O)[O-])CCN(CC(=O)[O-])CC1.[Gd+3].[Gd+3].[Gd+3] (stereo not drawn) [Example 1B, 1,3,5-Triiodotrimesic acid-N,N,N-tris-(3,6-diaza-4,7-dioxo-8-methyloctane-1,8-diyl-{10-[1,4,7-tris-(carboxylatomethyl)-1,4,7,10-tetraazacyclododecanyl, Gd-complex]})amide] | 930 μmol of I eq/ml | CT contrasting of vessels and renal cortex (early phase) (Male Wistar rats; 0.15 mmol/kg (127 mg of (I+Gd)/kg), 125 kV): very clear contrasting of the blood-conveying vessels (A) and the renal cortex (N); renal excretion (contrasting of renal pelvis in CT) (Male Wistar rats; 0.15 mmol/kg, 15 minutes later): quick renal excretion; MRA visualization of arteries and heart (Wistar rats; 0.03 mmol of substance or 0.1 mmol of Gd/kg, 1.5 T, 0-60 seconds p.i.): excellent ability to visualize the large arteries (aorta, femoral artery) as well as the heart; MRT whole-body image, organ contrasting (Wistar rats; 0.1 mmol of Gd/kg, 1.5 T, 15 minutes after the injection): clear contrasting of liver (L) as well as kidneys; renal elimination (ureter visualized in MRT) (Wistar rats; 0.1 mmol of Gd/kg, 15 minutes after the injection): quick renal elimination
0.0002 and 0.0002 ± 0.0001 | O=C([O-])CN1CCN(CC(=O)[O-])CCN(CC(=O)NCCNC(=O)c2c(I)c(C(=O)NCCNC(=O)CN3CCN(CC(=O)[O-])CCN(CC(=O)[O-])CCN(CC(=O)[O-])CC3)c(I)c(C(=O)NCCNC(=O)CN3CCN(CC(=O)[O-])CCN(CC(=O)[O-])CCN(CC(=O)[O-])CC3)c2I)CCN(CC(=O)[O-])CC1.[Gd+3].[Gd+3].[Gd+3] [Example 3F, 2,4,6-Triiodotrimesic acid-N,N,N-tris-(3-aza-4-oxopentane-1,5-diyl-{10-[1,4,7-tris-(carboxylatomethyl)-1,4,7,10-tetrazacyclododecanyl, Gdcomplex]})amide] | 1170 μmol of I eq/ml | 
 | O=C([O-])CN1CCN(CC(=O)[O-])CCN(CC(O)CNC(=O)c2c(I)c(C(=O)NCC(O)CN3CCN(CC(=O)[O-])CCN(CC(=O)[O-])CCN(CC(=O)[O-])CC3)c(I)c(C(=O)NCC(O)CN3CCN(CC(=O)[O-])CCN(CC(=O)[O-])CCN(CC(=O)[O-])CC3)c2I)CCN(CC(=O)[O-])CC1.[Gd+3].[Gd+3].[Gd+3] (stereo not drawn) [Example 5G, 1,3.5-Triiodotrimesic acid-N,N,N-tris-(2-hydroxypropane-1,3-diyl-{10-[1,4,7-tris-(carboxylatomethyl)-1,4,7,10-tetraazacyclododecanyl]}, Gdcomplex)amide] | 788 μmol of I eq/ml | 
0.006 ± 0.0007 | O=C([O-])CN1CCN(CC(=O)[O-])CCN([C@H](CO)[C@H](O)CO)CCN(CC(=O)[O-])CC1.[Gd+3] (racemic) [Gadobutrol, reference compound] | 153 μmol of I eq/ml | 
0.051 ± 0.003 | COCC(=O)Nc1c(I)c(C(=O)NCC(O)CO)c(I)c(C(=O)N(C)CC(O)CO)c1I (stereo not drawn) [Iopromide] |  | distribution coefficient of butanol/water relative to Example 3F ([2]; 0.051 vs. 0.0002): ≤ 255 ×; Distribution Coefficient of Butanol/Water ([2]; listed as lopromide): 0.051

SMILES | Distribution Coefficient of Butanol/Water [2] | IC50 [1] | also measured
CN(C(=O)CC(=O)N(C)c1c(I)c(C(=O)NC(CO)C(O)CO)c(I)c(C(=O)NC(CO)C(O)CO)c1I)c1c(I)c(C(=O)NC(CO)C(O)CO)c(I)c(C(=O)NC(CO)C(O)CO)c1I (stereo not drawn) [Iotrolan] | 0.0065 ± 0.002 |  | 
